# pIC50: −log10 of the molar value. Where two headings read alike, the source gives them in different places.
# Experiments:
# [1] = tested on: BXF 1036L; test: Combination study, 3D clonogenic assay, 5x5 matrix, Bliss independence; format: cell-based, human; conditions: monotherapy controls of the 5x5 combination matrix, read-out: IC50, colony formation, single agent
# Protocol: (§1) The objective of this study was to assess anti-tumor efficacy of adapalene in combination with cisplatin in a 5×5 matrix combination format against various bladder cancer cell lines. Efficacy of the combinations was assessed by measuring anchorage-independent growth and in vitro tumor colony formation using a 3D clonogenic assay in cell lines BXF 1036L, BXF 1218L, and BXF T24.
# (§2) The compounds were tested in bladder cell lines, namely BXF 1036L, BXF 1218L, and BXF T24. Cells lines of BXF 1036L and BXF 1218L were established at Oncotest in Freiburg from the corresponding patient-derived xenografts. BXF T24 cells were obtained from American Type Culture Collection (Rockville, Md., USA). Authenticity of cell lines was confirmed at the DSMZ by STR analysis.
# (§3) Cell lines were routinely passaged once or twice weekly and maintained in culture for up to 20 passages. Cells were grown at 37° C. in a humidified atmosphere with 5% CO2 in RPMI 1640 medium (25 mM HEPES, with L-glutamine, Biochrom) supplemented with 10% (v/v) fetal calf serum and 0.1 mg/mL gentamicin. The percentage of viable cells was determined in a Neubauer-hemocytometer using trypan blue exclusion.
# (§4) The clonogenic assay was carried out in a 96 well plate format using ultra low attachment plates. For each test cells were prepared as described above, and assay plates were prepared as follows: each test well contained a layer of semi-solid medium with tumor cells (50 μl), and a second layer of medium supernatant with or without test compounds (100 μl). The cell layer consisted of 5·10^3 to 7.5·10^3 tumor cells per well, which were seeded in 50 μl/well cell culture medium (IMDM, supplemented with 20% (v/v) fetal calf serum, 0.01% (w/v) gentamicin, and 0.4% (w/v) agar). After 24 h, the soft-agar layer was covered with 90 μl of the same culture medium without agar, and compounds were added after serial dilution in DMSO and transfer in cell culture medium and left on the cells for the duration of the experiment (continuous exposure, 100 μL total drug overlay). Every plate included six untreated control wells and drug-treated groups. Cultures were incubated at 37° C. and 7.5% CO2 in a humidified atmosphere for 8 to 13 days and monitored closely for colony growth using an inverted microscope. Within this period, ex vivo tumor growth led to the formation of colonies with a diameter of >50 μm. At the time of maximum colony formation, counts were performed with an automatic image analysis system (CellInsight NXT, Thermo Scientific). 48 hours prior to evaluation, vital colonies were stained with a sterile aqueous solution of 2-(4-iodophenyl)-3-(4-nitrophenyl)-5-phenyltetrazolium chloride (1 mg/ml, 100 μl/well).
# [2] = tested on: BXF T24; test: as above; format: cell-based, human; conditions: BXF T24, monotherapy controls of the 5x5 combination matrix, read-out: IC50, colony formation, single agent
# Protocol: as §1, §2, §3, §4
# [3] = tested on: five selected human bladder cancer cell lines; test: In vitro 2D assay, mean over the panel; format: cell-based
# Excerpt: (§5) In the present study the human bladder cancer cell lines BXF 1036, BXF 1218, BXF 1352, 5637 and T24 were used. BXF 1036, BXF 1218 and BXF 1352 were established at Oncotest from the corresponding human patient derived xenograft. T24 was purchased from ATCC (Rockville, Md., USA) and 5637 was from DSMZ (Braunschweig, Germany). Authenticity of cell lines was confirmed at the DSMZ by STR (short tandem repeat) analysis, a PCR based DNA-fingerprinting methodology. Cell lines were routinely passaged once or twice weekly and maintained in culture for up to 20 passages. All cells were grown at 37° C. in a humidified atmosphere with 5% CO2 in RPMI 1640 medium (25 mM HEPES, with L-glutamine, #FG1385, Biochrom, Berlin, Germany) supplemented with 10% (v/v) fetal calf serum (Sigma, Taufkirchen, Germany) and 0.1 mg/mL gentamicin (Life Technologies, Karlsruhe, Germany).
# (§6) The CellTiter-Blue® Cell Viability Assay (#G8081, Promega) was used according to manufacturer's instructions. Briefly, cells were harvested from exponential phase cultures, […] on the cell line's growth rate. After a 24 h recovery period to allow the cells to resume exponential growth, test compounds were added. Compounds were applied at 9 concentrations in half-log increments in duplicate and treatment continued for 96 h. After 96 h treatment of cells, 20 μL/well CellTiter-Blue® reagent was added.
# (§7) Following an incubation period of up to four hours, fluorescence (FU) was measured by using the Enspire Multimode Plate Reader (excitation λ=531 nm, emission λ=615 nm). For calculations, the mean values of duplicate/sixfold (untreated control) data were used. Sigmoidal concentration-response curves were fitted to the data points (T/C values) obtained for each cell line using 4 parameter non-linear curve fit (Oncotest Warehouse Software).
# [4] = tested on: BXF 1036; test: In vitro 2D assay (CellTiter-Blue cell viability); format: cell-based, human; conditions: BXF 1036, 96 h treatment
# Excerpt: as §5, §6, §7
# [5] = tested on: BXF 1352; test: In vitro 2D assay (CellTiter-Blue cell viability); format: cell-based, human; conditions: BXF 1352, 96 h treatment
# Excerpt: as §5, §6, §7
# [6] = tested on: 5637; test: In vitro 2D assay (CellTiter-Blue cell viability); format: cell-based, human
# Excerpt: as §5, §6, §7
# [7] = tested on: T24; test: In vitro 2D assay (CellTiter-Blue cell viability); format: cell-based, human
# Excerpt: as §5, §6, §7
# [8] = tested on: BXF 1218; test: In vitro 2D assay (CellTiter-Blue cell viability); format: cell-based, human; conditions: BXF 1218, 96 h treatment
# Excerpt: as §5, §6, §7
# [9] = tested on: 5 human tumor cell lines of bladder cancer; test: In vitro 3D clonogenic assay, mean over the panel; format: cell-based; conditions: for pIC50: colony formation; for IC50, Geo. Mean: geometric mean of five cell lines
# Protocol: (§8) The clonogenic assay was carried out in a 96 well plate format using ultra low attachment plates. For each test, cells were prepared as described above and assay plates were prepared as follows: each test well contained a layer of semi-solid medium with tumor cells (50 μL), and a second layer of medium supernatant with or without test compound (100 μL). The cell layer consisted of 2·103 to 3·103 tumor cells per well, which were seeded in 50 μL/well cell culture medium (IMDM, supplemented with 20% (v/v) fetal calf serum, 0.01% (w/v) gentamicin, and 0.4% (w/v) agar. After 24 hours the test compounds were added after serial dilution in cell culture medium, and left on the cells for the duration of the experiment (continuous exposure, 100 μl drug overlay). Every plate included six untreated control wells and drug-treated groups in duplicate at 9 concentrations. Cultures were incubated at 37° C. and 7.5% CO2 in a humidified atmosphere for 8 to 13 days and monitored closely for colony growth using an inverted microscope. Within this period, ex vivo tumor growth led to the formation of colonies with a diameter of >50 μm. At the time of maximum colony formation, counts were performed with an automatic image analysis system (Bioreader 5000-Wa Biosys GmbH). 48 hours prior to evaluation, vital colonies were stained with a sterile aqueous solution of 2-(4-iodophenyl)-3-(4-nitrophenyl)-5-phenyltetrazolium chloride (1 mg/ml, 100 μl/well).
# [10] = tested on: BXF 1036; test: In vitro 3D clonogenic assay (colony formation in semi-solid medium); format: cell-based, human; conditions: for pIC50: BXF 1036, absolute IC50
# Protocol: as §8
# [11] = tested on: BXF 1352; test: as above; format: cell-based, human; conditions: BXF 1352, absolute IC50
# Protocol: as §8
# [12] = tested on: BXF T24; test: as above; format: cell-based, human; conditions: for pIC50: BXF T24, absolute IC50
# Protocol: as §8
# [13] = tested on: BXF 1218; test: as above; format: cell-based, human; conditions: for pIC50: BXF 1218, absolute IC50
# Protocol: as §8
# [14] = tested on: BXF 5637; test: as above; format: cell-based, human; conditions: BXF 5637, absolute IC50
# Protocol: as §8
# [15] = tested on: BXF 1218L; test: Combination study, 3D clonogenic assay, 5x5 matrix, Bliss independence; format: cell-based, human; conditions: monotherapy controls of the 5x5 combination matrix, read-out: IC50, colony formation, single agent
# Protocol: The objective of this study was to assess anti-tumor efficacy of adapalene in combination with cisplatin in a 5×5 matrix combination format against various bladder cancer cell lines. Efficacy of the combinations was assessed by measuring anchorage-independent growth and in vitro tumor colony formation using a 3D clonogenic assay in cell lines BXF […], BXF […], and BXF T24. […] The compounds were tested in bladder cell lines, namely BXF […], BXF […], and BXF T24. Cells lines of BXF […] and BXF […] were established at Oncotest in Freiburg from the corresponding patient-derived xenografts. BXF T24 cells were obtained from American Type Culture Collection (Rockville, Md., USA). Authenticity of cell lines was confirmed at the DSMZ by STR analysis. Cell lines were routinely passaged once or twice weekly and maintained in culture for up to 20 passages. Cells were grown at 37° C. in a humidified atmosphere with 5% CO2 in RPMI 1640 medium (25 mM HEPES, with L-glutamine, Biochrom) supplemented with 10% (v/v) fetal calf serum and 0.1 mg/mL gentamicin. The percentage of viable cells was determined in a Neubauer-hemocytometer using trypan blue exclusion. […] Cultures were incubated at 37° C. and 7.5% CO2 in a humidified atmosphere for 8 to 13 days and monitored closely for colony growth using an inverted microscope. […]
smiles,measurement,setting,value
COc1ccc(-c2ccc3cc(C(=O)O)ccc3c2)cc1C12CC3CC(CC(C3)C1)C2 [Adapalene],pIC50,[1]; Homo sapiens,4.97
same,pIC50,[2]; Homo sapiens,5.46
same,pIC50,"[3]; Homo sapiens, geometric mean of five cell lines, read-out: IC50, Geo. Mean",5.17
same,difference between the most sensitive and most resistant cell line,[3]; IC50 of T24 vs BXF 1352,4 fold
same,pIC50,[4]; Homo sapiens,5.00
same,pIC50,[5]; Homo sapiens,4.86
same,pIC50,"[6]; Homo sapiens, 2D assay, 5637, 96 h treatment",5.27
same,pIC50,"[7]; Homo sapiens, T-24, T24, 96 h treatment",5.48
same,pIC50,[8]; Homo sapiens,5.22
same,pIC50,"[9]; Homo sapiens, read-out: mean absolute IC50 value",4.85
same,pIC50,"[9]; Homo sapiens, read-out: mean relative IC50 value",5.13
same,"IC50, Geo. Mean",[9],14.01 µM
same,pIC50,[10]; Homo sapiens,5.01
same,pIC50,[11]; Homo sapiens,4.89
same,activity relative to mean IC50 (above average = individual IC50 value < 1/2 mean IC50),[12]; BXF T-24,above average activity
same,pIC50,[12]; Homo sapiens,≤ 4.00
same,activity relative to mean IC50 (above average = individual IC50 value < 1/2 mean IC50),[13]; BXF 1218,above average activity
same,pIC50,[13]; Homo sapiens,5.32
same,pIC50,[14]; Homo sapiens,5.04
"N.N.[Cl][Pt][Cl] [Cisplatin, cisplatin]",pIC50,[1],5.22
same,pIC50,[2],4.11
same,pIC50,"[3]; all cell lines tested, read-out: geometric mean absolute IC50 value",5.07
same,pIC50,[4],5.02
same,pIC50,[5],4.77
same,pIC50,"[6]; 2D assay, BXF 5637, 96 h treatment",5.01
same,pIC50,"[7]; BXF T24, 96 h treatment",5.38
same,pIC50,[8],5.15
same,pIC50,[15],5.17
same,pIC50,[9]; read-out: mean absolute IC50 value,5.00
same,pIC50,[9]; read-out: mean relative IC50 value,5.01
same,"IC50, Geo. Mean",[9],9.93 µM
same,Bottom plateaus of the concentration-effect curves,[9]; responding tumor models,< 10%
same,pIC50,[10],5.40
same,activity relative to mean IC50 (above average = individual IC50 value < 1/2 mean IC50),"[10]; BXF 1036, based on relative IC50 values",above average activity
same,pIC50,[11],5.06
same,pIC50,[12],4.28
same,pIC50,[13],5.27
same,pIC50,[14],5.00

# Source: US20200170983A1, “METHODS FOR THE TREATMENT OF BLADDER CANCER” (Cipla Limited, priority 2015, published 2020)
